Results published in PubChem BioAssay AID256 (DTP/NCI, 2004).
Where “and” joins values, the source holds several entries; their conditions need not be identical. Identical values can stand only once. Toxic doses and inconclusive results are not listed. The calls were made as follows: active = survival T/C of 150% or more; inactive = T/C below 125% in these data.

Tested on: CD2F1 mice, L1210 leukemia ip, survival T/C
Experiment: NCI In Vivo Anticancer Drug Screen. Data for tumor model L1210 Leukemia (intraperitoneal) in CD2F1 (CDF1) mice
Conditions: higher = longer survival
Outline: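 Implant tumor; dose compound or vehicle; measure endpoint in both groups; report treated divided by control.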

[1] = endpoint: mean survival time, dose: 12.5 mg/kg/injection, schedule: Q01DX009 (ip), vehicle: saline with Tween-80
[2] = endpoint: mean survival time, dose: 25.0 mg/kg/injection, schedule: Q04DX003 (ip), vehicle: saline with Tween-80
[3] = endpoint: mean survival time, dose: 50.0 mg/kg/injection, schedule: Q04DX002 (ip), vehicle: saline with Tween-80
[4] = endpoint: mean survival time, dose: 100.0 mg/kg/injection, schedule: Q01DX009 (ip), vehicle: saline with Tween-80
[5] = endpoint: mean survival time, dose: 100.0 mg/kg/injection, schedule: Q01DX001 (ip), vehicle: saline with Tween-80
[6] = endpoint: mean survival time, dose: 200.0 mg/kg/injection, schedule: Q01DX001 (ip), vehicle: saline with Tween-80
[7] = endpoint: mean survival time, dose: 400.0 mg/kg/injection, schedule: Q01DX001 (ip), vehicle: saline with Tween-80
[8] = endpoint: mean survival time, dose: 75.0 mg/kg/injection, schedule: Q01DX001 (ip), vehicle: other
[9] = endpoint: mean survival time, dose: 100.0 mg/kg/injection, schedule: Q04DX003 (ip), vehicle: saline with Tween-80
[10] = endpoint: mean survival time, dose: 200.0 mg/kg/injection, schedule: Q04DX003 (ip), vehicle: saline with Tween-80
[11] = endpoint: mean survival time, dose: 400.0 mg/kg/injection, schedule: Q04DX003 (ip), vehicle: saline with Tween-80

Measured: T/C

CCOC(=O)c1ccc(NC(=O)Nc2cc(Cl)c(Cl)cc2C)cc1
inactive: endpoint: mean survival time, dose: 3.13 mg/kg/injection, schedule: Q01DX001 (ip), vehicle: saline with Tween-80 93 % of control | endpoint: mean survival time, dose: 3.13 mg/kg/injection, schedule: Q04DX003 (ip), vehicle: saline with Tween-80 90 % of control | endpoint: mean survival time, dose: 6.25 mg/kg/injection, schedule: Q01DX001 (ip), vehicle: saline with Tween-80 92 % of control | endpoint: mean survival time, dose: 6.25 mg/kg/injection, schedule: Q01DX009 (ip), vehicle: saline with Tween-80 86 % of control and 89 % of control | endpoint: mean survival time, dose: 6.25 mg/kg/injection, schedule: Q04DX002 (ip), vehicle: saline with Tween-80 91 % of control and 97 % of control | endpoint: mean survival time, dose: 6.25 mg/kg/injection, schedule: Q04DX003 (ip), vehicle: saline with Tween-80 89 % of control | endpoint: mean survival time, dose: 12.5 mg/kg/injection, schedule: Q01DX001 (ip), vehicle: saline with Tween-80 93 % of control | [1] 86 % of control | endpoint: mean survival time, dose: 12.5 mg/kg/injection, schedule: Q04DX002 (ip), vehicle: saline with Tween-80 91 % of control | [2] 90 % of control | [3] 91 % of control | [4] 88 % of control | endpoint: mean survival time, dose: 400.0 mg/kg/injection, schedule: Q04DX002 (ip), vehicle: saline with Tween-80 88 % of control

CP(=O)(c1ccccc1)c1ccccc1
inactive: [5] 100 % of control | [6] 103 % of control | [7] 98 % of control

Nc1nc2c(ncn2C2OC(CO)C(O)C2O)c(=O)[nH]1.Nc1nc2c(ncn2C2OC(CO)C(O)C2O)c(=O)[nH]1.[NH2-].[NH2-].[Pt+2] (stereo not drawn)
inactive: endpoint: mean survival time, dose: 6.25 mg/kg/injection, schedule: Q01DX009 (ip), vehicle: water 102 % of control and 106 % of control | endpoint: mean survival time, dose: 12.5 mg/kg/injection, schedule: Q01DX009 (ip), vehicle: water 106 % of control and 112 % of control | endpoint: mean survival time, dose: 25.0 mg/kg/injection, schedule: Q01DX009 (ip), vehicle: water 113 % of control and 124 % of control | endpoint: mean survival time, dose: 50.0 mg/kg/injection, schedule: Q01DX009 (ip), vehicle: water 113 % of control | endpoint: mean survival time, dose: 100.0 mg/kg/injection, schedule: Q01DX009 (ip), vehicle: water 123 % of control

CC(C)C(C#[N+][O-])C(C)C
inactive: [8] 108 % of control | endpoint: mean survival time, dose: 150.0 mg/kg/injection, schedule: Q01DX001 (ip), vehicle: other 105 % of control | endpoint: mean survival time, dose: 300.0 mg/kg/injection, schedule: Q01DX001 (ip), vehicle: other 96 % of control

Brc1ccc2c(c1)-c1ccccc1C2Br (stereo not drawn)
inactive: endpoint: mean survival time, dose: 62.5 mg/kg/injection, schedule: Q04DX003 (ip), vehicle: saline with Tween-80 107 % of control | endpoint: mean survival time, dose: 125.0 mg/kg/injection, schedule: Q04DX003 (ip), vehicle: saline with Tween-80 109 % of control | endpoint: mean survival time, dose: 250.0 mg/kg/injection, schedule: Q04DX003 (ip), vehicle: saline with Tween-80 98 % of control

CC(=O)/C=C/c1ccc([N+](=O)[O-])cc1
inactive: endpoint: mean survival time, dose: 100.0 mg/kg/injection, schedule: Q04DX003 (ip), vehicle: saline sonified 102 % of control | endpoint: mean survival time, dose: 200.0 mg/kg/injection, schedule: Q04DX003 (ip), vehicle: saline sonified 102 % of control | endpoint: mean survival time, dose: 400.0 mg/kg/injection, schedule: Q04DX003 (ip), vehicle: saline sonified 95 % of control

COc1cc(OC)c(/C=C/c2cc[n+](C)c3ccccc23)c(OC)c1
inactive: endpoint: mean survival time, dose: 1.56 mg/kg/injection, schedule: Q01DX009 (ip), vehicle: saline 106 % of control | endpoint: mean survival time, dose: 1.56 mg/kg/injection, schedule: Q04DX002 (ip), vehicle: saline 100 % of control | endpoint: mean survival time, dose: 3.13 mg/kg/injection, schedule: Q01DX009 (ip), vehicle: saline 109 % of control | endpoint: mean survival time, dose: 3.13 mg/kg/injection, schedule: Q04DX002 (ip), vehicle: saline 98 % of control | endpoint: mean survival time, dose: 6.25 mg/kg/injection, schedule: Q04DX002 (ip), vehicle: saline 88 % of control and 91 % of control

COc1ccc(-c2[nH]c(=S)[nH]c(=O)c2CCO)cc1
inactive: [4] 93 % of control | [9] 90 % of control | [10] 88 % of control | endpoint: mean survival time, dose: 400.0 mg/kg/injection, schedule: Q01DX009 (ip), vehicle: saline with Tween-80 92 % of control | [11] 95 % of control

Nc1nc(N)c2nc(-c3ccccc3)c(N)nc2n1
inactive: [1] 97 % of control | endpoint: mean survival time, dose: 12.5 mg/kg/injection, schedule: Q04DX003 (ip), vehicle: saline with Tween-80 102 % of control | endpoint: mean survival time, dose: 25.0 mg/kg/injection, schedule: Q01DX009 (ip), vehicle: saline with Tween-80 98 % of control | [2] 95 % of control | endpoint: mean survival time, dose: 50.0 mg/kg/injection, schedule: Q01DX009 (ip), vehicle: saline with Tween-80 94 % of control | endpoint: mean survival time, dose: 50.0 mg/kg/injection, schedule: Q04DX003 (ip), vehicle: saline with Tween-80 98 % of control

CC(C)(C)OC(=O)NCCCC(N)C(=O)O (stereo not drawn)
inactive: [9] 92 % of control | [10] 94 % of control | [11] 94 % of control

Nc1cc(=S)c2ncn(C3OC(CO)C(O)C3O)c2[nH]1 (stereo not drawn)
inactive: endpoint: mean survival time, dose: 6.25 mg/kg/injection, schedule: Q01DX005 (ip), vehicle: water 89 % of control | endpoint: mean survival time, dose: 12.5 mg/kg/injection, schedule: Q01DX005 (ip), vehicle: water 101 % of control | endpoint: mean survival time, dose: 25.0 mg/kg/injection, schedule: Q01DX005 (ip), vehicle: water 89 % of control | endpoint: mean survival time, dose: 50.0 mg/kg/injection, schedule: Q01DX005 (ip), vehicle: water 96 % of control | [5] 100 % of control | endpoint: mean survival time, dose: 100.0 mg/kg/injection, schedule: Q01DX005 (ip), vehicle: water 93 % of control | [6] 91 % of control | [7] 100 % of control

CCC(C)C1NC(=O)C(NC(=O)c2c3nc4c(C(=O)NC5C(=O)NC(C(C)CC)C(=O)N6CCCC6C(=O)N(C)CC(=O)N(C)C(C(C)C)C(=O)OC5C)cc(N)c(C)c4oc-3c(C)c(=O)c2N)C(C)OC(=O)C(C(C)C)N(C)C(=O)CN(C)C(=O)C2CCCN2C1=O (stereo not drawn)
inactive: endpoint: mean survival time, dose: 25.0 micrograms/kg/injection, schedule: Q01DX009 (ip), vehicle: water 116 % of control | endpoint: mean survival time, dose: 50.0 micrograms/kg/injection, schedule: Q01DX009 (ip), vehicle: water 121 % of control

O=C1CN2CCC1CC2
inactive: endpoint: mean survival time, dose: 100.0 mg/kg/injection, schedule: Q04DX003 (ip), vehicle: saline 102 % of control | endpoint: mean survival time, dose: 200.0 mg/kg/injection, schedule: Q04DX003 (ip), vehicle: saline 107 % of control

Cc1ccc(S(=O)(=O)C[n+]2ccccc2N)cc1
inactive: endpoint: mean survival time, dose: 25.0 mg/kg/injection, schedule: Q04DX002 (ip), vehicle: saline with Tween-80 102 % of control | [3] 95 % of control | endpoint: mean survival time, dose: 100.0 mg/kg/injection, schedule: Q04DX002 (ip), vehicle: saline with Tween-80 93 % of control and 95 % of control

CC(C)c1ccc2ccccc2c1
inactive: [9] 91 % of control | [10] 87 % of control | [11] 86 % of control

c1ccc(N=NC2(c3ccccc3)CC(c3ccccc3)=NN(c3ccccc3)C2NNc2ccccc2)cc1 (stereo not drawn)
inactive: [5] 96 % of control | [6] 102 % of control | [7] 96 % of control

O=C(N=C1OC2C(OC(=O)c3ccccc3)C(COC(=O)c3ccccc3)OC2N1C(=O)c1ccccc1)c1ccccc1 (stereo not drawn)
inactive: endpoint: mean survival time, dose: 100.0 mg/kg/injection, schedule: Q01DX009 (ip), vehicle: saline 100 % of control | endpoint: mean survival time, dose: 200.0 mg/kg/injection, schedule: Q01DX009 (ip), vehicle: saline 100 % of control | endpoint: median survival time, dose: 100.0 mg/kg/injection, schedule: Q04DX003 (ip), vehicle: saline sonified 87 % of control | endpoint: median survival time, dose: 200.0 mg/kg/injection, schedule: Q04DX003 (ip), vehicle: saline sonified 100 % of control | endpoint: median survival time, dose: 400.0 mg/kg/injection, schedule: Q04DX003 (ip), vehicle: saline sonified 100 % of control

CCCCCCCCCCCCCCCCCC[N+]1(CC)CCCCC1
inactive: endpoint: mean survival time, dose: 0.09 mg/kg/injection, schedule: Q01DX009 (ip), vehicle: saline 98 % of control | endpoint: mean survival time, dose: 0.19 mg/kg/injection, schedule: Q01DX009 (ip), vehicle: saline 98 % of control | endpoint: mean survival time, dose: 0.39 mg/kg/injection, schedule: Q01DX009 (ip), vehicle: saline 101 % of control | endpoint: mean survival time, dose: 0.78 mg/kg/injection, schedule: Q01DX009 (ip), vehicle: saline 98 % of control

CN1NC=Nc2c(SCc3ccccc3)ncnc21
inactive: [8] 98 % of control

CC(CC(=O)O)c1ccc(Cl)cc1 (stereo not drawn)
inactive: [9] 101 % of control | [10] 101 % of control | [11] 101 % of control

O=C(O)c1c(O)cccc1O
inactive: endpoint: mean survival time, dose: 50.0 mg/kg/injection, schedule: Q01DX001 (ip), vehicle: saline 98 % of control | endpoint: mean survival time, dose: 100.0 mg/kg/injection, schedule: Q01DX001 (ip), vehicle: saline 98 % of control | endpoint: mean survival time, dose: 200.0 mg/kg/injection, schedule: Q01DX001 (ip), vehicle: saline 101 % of control

CC(=O)C(N=Nc1cccc2c1C(=O)c1cccc(Cl)c1C2=O)C(=O)Nc1ccccc1Cl (stereo not drawn)
inactive: endpoint: mean survival time, dose: 75.0 mg/kg/injection, schedule: Q01DX001 (ip), vehicle: saline 89 % of control | endpoint: mean survival time, dose: 150.0 mg/kg/injection, schedule: Q01DX001 (ip), vehicle: saline 95 % of control
